Assay results published in ChEMBL document CHEMBL1145401, “Design and synthesis of classical and nonclassical 6-arylthio-2,4-diamino-5-ethylpyrrolo[2,3-d]pyrimidines as antifolates” (J Med Chem, 2007).

Experiments:
[1] = Selectivity ratio of IC50 for rat liver DHFR to IC50 for Mycobacterium avium DHFR
Dihydrofolate reductase [2] = target: T1, Dihydrofolate reductase (Mycobacterium avium, UniProt O30463)
T1 sequence (O30463 whole entry): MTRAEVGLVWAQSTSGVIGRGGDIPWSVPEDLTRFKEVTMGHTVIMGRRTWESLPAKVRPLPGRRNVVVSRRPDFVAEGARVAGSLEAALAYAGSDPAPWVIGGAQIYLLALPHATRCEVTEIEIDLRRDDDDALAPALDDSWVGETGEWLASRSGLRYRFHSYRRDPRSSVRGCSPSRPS
Description: Inhibition of Mycobacterium avium DHFR

[3] = Selectivity ratio of IC50 for human DHFR to IC50 for Escherichia coli DHFR
[4] = target: T2, Bifunctional dihydrofolate reductase-thymidylate synthase (Toxoplasma gondii, UniProt Q07422)
T2 sequence (Q07422 whole entry): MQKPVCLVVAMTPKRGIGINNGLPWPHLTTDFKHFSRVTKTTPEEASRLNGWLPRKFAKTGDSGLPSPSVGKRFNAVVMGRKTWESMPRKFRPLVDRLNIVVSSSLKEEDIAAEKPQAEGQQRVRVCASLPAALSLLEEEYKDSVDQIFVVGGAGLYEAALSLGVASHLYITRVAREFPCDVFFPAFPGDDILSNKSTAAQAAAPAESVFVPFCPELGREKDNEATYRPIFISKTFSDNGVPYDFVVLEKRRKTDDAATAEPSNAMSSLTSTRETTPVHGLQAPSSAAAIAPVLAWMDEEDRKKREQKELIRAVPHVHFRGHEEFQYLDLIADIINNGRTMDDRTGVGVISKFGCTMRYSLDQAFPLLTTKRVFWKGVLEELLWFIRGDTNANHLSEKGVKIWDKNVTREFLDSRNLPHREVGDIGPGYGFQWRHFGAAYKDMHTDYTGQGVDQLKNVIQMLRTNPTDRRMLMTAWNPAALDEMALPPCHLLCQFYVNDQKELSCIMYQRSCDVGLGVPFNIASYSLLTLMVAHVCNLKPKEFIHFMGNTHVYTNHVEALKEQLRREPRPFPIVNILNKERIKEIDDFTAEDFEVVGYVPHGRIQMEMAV
Description: Inhibition of Toxoplasma gondii DHFR

Dihydrofolate reductase [5] = target: T3, Dihydrofolate reductase (Pneumocystis carinii, UniProt P16184)
T3 sequence (P16184 whole entry): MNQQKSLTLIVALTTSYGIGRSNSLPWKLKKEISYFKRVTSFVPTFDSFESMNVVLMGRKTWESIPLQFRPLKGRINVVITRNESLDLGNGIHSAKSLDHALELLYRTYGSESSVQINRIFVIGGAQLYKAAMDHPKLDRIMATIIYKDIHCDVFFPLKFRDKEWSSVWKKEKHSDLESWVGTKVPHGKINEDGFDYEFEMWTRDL
Description: Inhibition of Pneumocystis carinii DHFR

Dihydrofolate reductase [6] = target: T4, Dihydrofolate reductase (Homo sapiens, UniProt P00374)
Dihydrofolate reductase [7] = target: T5, Dihydrofolate reductase (Rattus norvegicus, UniProt Q920D2)
T5 sequence (Q920D2 whole entry): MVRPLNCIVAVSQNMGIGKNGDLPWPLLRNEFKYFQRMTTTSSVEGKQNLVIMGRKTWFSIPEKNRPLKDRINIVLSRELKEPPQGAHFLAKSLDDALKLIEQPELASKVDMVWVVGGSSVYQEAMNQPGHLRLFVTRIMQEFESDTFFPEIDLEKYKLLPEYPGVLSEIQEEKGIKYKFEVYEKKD
Description: Inhibition of rat liver DHFR

[8] = Selectivity ratio of IC50 for rat liver DHFR to IC50 for Pneumocystis carinii DHFR
[9] = Inhibition of Escherichia coli DHFR
Dihydrofolate reductase [10] = target: T4, Dihydrofolate reductase; test: Inhibition of human DHFR relative to control; details: concentration not given here
SF-268 = test: Cytotoxicity against SF268 cells; type: functional; details: Homo sapiens
SF-295 = test: Cytotoxicity against SF295 cells; type: functional; details: Homo sapiens
CCRF-CEM [11] = test: Cytotoxicity against CCRF-CEM cells; type: functional; details: Homo sapiens
UACC-62 = test: Cytotoxicity against UACC62 cells; type: functional; details: Homo sapiens
ACHN = test: Cytotoxicity against ACHN cells; type: functional; details: Homo sapiens
MDA-MB-435 = test: Cytotoxicity against MDA-MB-435 cells; type: functional; details: Homo sapiens
CCRF-CEM [12] = test: cells; details: Homo sapiens
CCRF-CEM [13] = test: Effect on growth of human CCRF-CEM cells at 5000 nM in presence of 10 uM deoxycytidine, 10 uM hypoxanthine relative to control; type: functional
UO-31 = test: Cytotoxicity against UO31 cells; type: functional; details: Homo sapiens
HT-29 = test: Cytotoxicity against HT29 cells; type: functional; details: Homo sapiens
CCRF-CEM [14] = test: Effect on growth of human CCRF-CEM cells at 5000 nM in presence of 10 uM deoxycytidine, 5 uM thymidine relative to control; type: functional
CCRF-CEM [15] = test: Growth inhibition of human CCRF-CEM cells
CAKI-1 = test: Cytotoxicity against CAKI1 cells; type: functional; details: Homo sapiens
SN12C = test: Cytotoxicity against SN12C cells; type: functional; details: Homo sapiens
CCRF-CEM [16] = test: Effect on growth of human CCRF-CEM cells at 5000 nM in presence of 10 uM deoxycytidine relative to control; type: functional
SR = test: Cytotoxicity against SR cells; type: functional; details: Homo sapiens
K562 = test: Cytotoxicity against K562 cells; type: functional; details: Homo sapiens
CCRF-CEM [17] = test: Effect on growth of human CCRF-CEM cells at 5000 nM in presence of 10 uM deoxycytidine, 5 uM thymidine and 10 uM hypoxanthine relative to control; type: functional
CCRF-CEM [18] = test: cells; details: Homo sapiens; remark: listed apart in the source
LOX IMVI = test: Cytotoxicity against LOX IMVI cells; type: functional; details: Homo sapiens
HCT-116 = test: Cytotoxicity against HCT116 cells; type: functional; details: Homo sapiens
CCRF-CEM [19] = test: cells; details: Homo sapiens; remark: listed apart in the source
KM12 = test: Cytotoxicity against KM12 cells; type: functional; details: Homo sapiens
MCF7 = test: Cytotoxicity against MCF7 cells; type: functional; details: Homo sapiens
OVCAR-8 = test: Cytotoxicity against OVCAR8 cells; type: functional; details: Homo sapiens
MOLT-4 = test: Cytotoxicity against MOLT4 cells; type: functional; details: Homo sapiens
SF-539 = test: Cytotoxicity against SF539 cells; type: functional; details: Homo sapiens
NCI-H460 = test: Cytotoxicity against NCI-H460 cells; type: functional; details: Homo sapiens
SW-620 = test: Cytotoxicity against SW620 cells; type: functional; details: Homo sapiens
DU-145 = test: Cytotoxicity against DU145 cells; type: functional; details: Homo sapiens
PC-3 = test: Cytotoxicity against PC3 cells; type: functional; details: Homo sapiens
U-251 = test: Cytotoxicity against U251 cells; type: functional; details: Homo sapiens
CCRF-CEM [20] = test: Effect on growth of human CCRF-CEM cells at 40 nM in presence of 10 uM deoxycytidine relative to control; type: functional
CCRF-CEM [21] = test: Effect on growth of human CCRF-CEM cells at 40 nM in presence of 10 uM deoxycytidine, 5 uM thymidine and 10 uM hypoxanthine relative to control; type: functional
CCRF-CEM [22] = test: Effect on growth of human CCRF-CEM cells at 40 nM in presence of 10 uM deoxycytidine, 5 uM thymidine relative to control; type: functional
CCRF-CEM [23] = test: Effect on growth of human CCRF-CEM cells at 40 nM in presence of 10 uM deoxycytidine, 10 uM hypoxanthine relative to control; type: functional

## CCc1c(Sc2ccc(Cl)cc2Cl)[nH]c2nc(N)nc(N)c12
[1]
  Ratio IC50: 3.3
Dihydrofolate reductase [2]
  IC50: 350 nM
[3]
  Ratio IC50: 10
[4]
  IC50: 220 nM
Dihydrofolate reductase [5]
  IC50: 7190 nM
Dihydrofolate reductase [6]
  IC50: 1400 nM
Dihydrofolate reductase [7]
  IC50: 1170 nM
[8]
  Ratio IC50: 0.2
[9]
  IC50: 140 nM

## CCc1c(Sc2cccc3cccnc23)[nH]c2nc(N)nc(N)c12
Dihydrofolate reductase [2]
  IC50: 110 nM
Dihydrofolate reductase [5]
  IC50: 9580 nM
Dihydrofolate reductase [6]
  IC50: 1400 nM
Dihydrofolate reductase [7]
  IC50: 3550 nM

## CCc1c(Sc2cccc3ccccc23)[nH]c2nc(N)nc(N)c12
Dihydrofolate reductase [2]
  IC50: 19800 nM
[4]
  IC50: 3150 nM
Dihydrofolate reductase [5]
  IC50: 18400 nM
Dihydrofolate reductase [6]
  IC50: 2900 nM
Dihydrofolate reductase [7]
  IC50: 40100 nM

## CCc1c(Sc2cc(OC)ccc2OC)[nH]c2nc(N)nc(N)c12
[4]
  IC50: 120 nM
Dihydrofolate reductase [6]
  IC50: 5800 nM

## CCc1c(Sc2ccc(Cl)cc2)[nH]c2nc(N)nc(N)c12
[1]
  Ratio IC50: 7.8
Dihydrofolate reductase [2]
  IC50: 700 nM
[4]
  IC50: 1540 nM
Dihydrofolate reductase [10]
  inhibition: 36%
Dihydrofolate reductase [5]
  IC50: 11900 nM
Dihydrofolate reductase [6]
  IC50: > 31000 nM
Dihydrofolate reductase [7]
  IC50: 5480 nM
[8]
  Ratio IC50: 0.5

## Cc1c(Sc2ccc3ccccc3c2)[nH]c2nc(N)nc(N)c12
[1]
  Ratio IC50: 6.5
Dihydrofolate reductase [2]
  IC50: 700 nM
[4]
  IC50: 160 nM
[8]
  Ratio IC50: 0.1

## CCc1c(Sc2cccc(Cl)c2)[nH]c2nc(N)nc(N)c12
[1]
  Ratio IC50: 15.1
Dihydrofolate reductase [2]
  IC50: 420 nM
[3]
  Ratio IC50: > 194
[4]
  IC50: 500 nM
Dihydrofolate reductase [10]
  inhibition: 30%
Dihydrofolate reductase [5]
  IC50: 4020 nM
Dihydrofolate reductase [6]
  IC50: > 31000 nM
Dihydrofolate reductase [7]
  IC50: 6330 nM
[8]
  Ratio IC50: 1.6
[9]
  IC50: 160 nM

## CCc1c(Sc2c(C)cccc2C)[nH]c2nc(N)nc(N)c12
Dihydrofolate reductase [2]
  IC50: 18400 nM
[4]
  IC50: 7100 nM
Dihydrofolate reductase [5]
  IC50: 30200 nM
Dihydrofolate reductase [7]
  IC50: 10100 nM

## CCc1c(Sc2ccc(C(=O)N[C@@H](CCC(=O)O)C(=O)O)cc2)[nH]c2nc(N)nc(N)c12
SF-268
  GI50: 430 nM
SF-295
  GI50: 660 nM
CCRF-CEM [11]
  GI50: 17 nM
UACC-62
  GI50: 880 nM
ACHN
  GI50: 440 nM
MDA-MB-435
  GI50: 660 nM
CCRF-CEM [12]
  EC50: 200 nM
CCRF-CEM [13]
  Activity: 12%
UO-31
  GI50: 300 nM
HT-29
  GI50: 98 nM
CCRF-CEM [14]
  Activity: 15%
CCRF-CEM [15]
  EC50: 68 nM
CAKI-1
  GI50: 170 nM
SN12C
  GI50: 600 nM
CCRF-CEM [16]
  Activity: 12%
SR
  GI50: < 10 nM
K562
  GI50: 12 nM
CCRF-CEM [17]
  Activity: 74%
CCRF-CEM [18]
  EC50: 5700 nM
LOX IMVI
  GI50: 44 nM
HCT-116
  GI50: 23 nM
CCRF-CEM [19]
  EC50: 6700 nM
KM12
  GI50: 56 nM
MCF7
  GI50: 170 nM
OVCAR-8
  GI50: 740 nM
MOLT-4
  GI50: 480 nM
SF-539
  GI50: 240 nM
NCI-H460
  GI50: 180 nM
SW-620
  GI50: 26 nM
Dihydrofolate reductase [6]
  IC50: 66 nM
DU-145
  GI50: 370 nM
PC-3
  GI50: 400 nM
U-251
  GI50: 530 nM

## CN(Cc1cnc2nc(N)nc(N)c2n1)c1ccc(C(=O)N[C@@H](CCC(=O)O)C(=O)O)cc1 [METHOTREXATE]
CCRF-CEM [20]
  Activity: 11%
CCRF-CEM [21]
  Activity: 74%
CCRF-CEM [22]
  Activity: 13%
CCRF-CEM [23]
  Activity: 14%
